Earlier results on 4 compounds are cited in patent US20030100493A1, “Sublingual use of inhibitors in the biosynthesis of cholesterol” (priority 2001, published 2003).

The conditions of series [1]: sublingual; coronary patient.
The test system of a further series is cholesterol synthesis. The following applies: compared with the other statins.
The conditions of series [2]: in vivo.

As to `O=[N+]([O-])OCC(CO[N+](=O)[O-])O[N+](=O)[O-]` [Nitroglycerin], in series [1], the “duration of effect (short lasting effect)” value is on record as “five to ten”.
`CC(C)c1nc(N(C)S(C)(=O)=O)nc(-c2ccc(F)cc2)c1/C=C/[C@@H](O)C[C@@H](O)CC(=O)O` [Rosuvastatin]: in the series with cholesterol synthesis, the “potency as an inhibitor of cholesterol synthesis” value was “significantly higher potency”.
Turning to `CC(C)n1c(/C=C/C(O)CC(O)CC(=O)O)c(-c2ccc(F)cc2)c2ccccc21` (stereo not shown) [Fluvastatin], the “passage of the blood brain barrier” value in series [2] is on record as “do not pass the blood brain barrier”.
Turning to `CC[C@H](C)C(=O)O[C@H]1C[C@H](O)C=C2C=C[C@H](C)[C@H](CC[C@@H](O)C[C@@H](O)CC(=O)O)[C@H]21` [Pravastatin], in series [2], the “passage of the blood brain barrier” value is reported as “do not pass the blood brain barrier”.
